In PubChem BioAssay (NCI):
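How tested: cells in 96-well plates exposed to compound for 48 hours at five concentrations. At the TGI there is no net growth.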

What was measured:
Experiment in all cases: growth of human tumour cells (NCI), 48 h
HL-60(TB) leukemia = system: HL-60(TB) leukemia
UACC-62 melanoma = system: UACC-62 melanoma
OVCAR-3 ovarian = system: OVCAR-3 ovarian
DMS 273 small cell lung = system: DMS 273 small cell lung
SK-OV-3 ovarian = system: SK-OV-3 ovarian
SF-268 CNS = system: SF-268 CNS
NCI-H522 lung = system: NCI-H522 lung
SK-MEL-2 melanoma = system: SK-MEL-2 melanoma
SK-MEL-28 melanoma = system: SK-MEL-28 melanoma
HOP-62 NSCLC = system: HOP-62 NSCLC
HT29 colon = system: HT29 colon
A498 renal = system: A498 renal
LXFL 529 NSCLC = system: LXFL 529 NSCLC
M14 melanoma = system: M14 melanoma
NCI-H23 lung = system: NCI-H23 lung
UO-31 renal = system: UO-31 renal
IGROV1 ovarian = system: IGROV1 ovarian
LOX IMVI melanoma = system: LOX IMVI melanoma
DLD-1 colon = system: DLD-1 colon
786-0 renal = system: 786-0 renal
OVCAR-4 ovarian = system: OVCAR-4 ovarian
SW-620 colon = system: SW-620 colon
SF-539 CNS = system: SF-539 CNS
M19-MEL melanoma = system: M19-MEL melanoma
CAKI-1 renal = system: CAKI-1 renal
SN12C renal = system: SN12C renal
U251 CNS = system: U251 CNS
HOP-18 NSCLC = system: HOP-18 NSCLC
HCC-2998 colon = system: HCC-2998 colon
ACHN renal = system: ACHN renal
HCT-15 colon = system: HCT-15 colon
SK-MEL-5 melanoma = system: SK-MEL-5 melanoma
MOLT-4 leukemia = system: MOLT-4 leukemia
HOP-92 NSCLC = system: HOP-92 NSCLC
SR leukemia = system: SR leukemia
COLO 205 colon = system: COLO 205 colon
SNB-19 CNS = system: SNB-19 CNS
CCRF-CEM leukemia = system: CCRF-CEM leukemia
TK-10 renal = system: TK-10 renal
KM12 colon = system: KM12 colon
A549 NSCLC = system: A549 NSCLC
K-562 leukemia = system: K-562 leukemia
SF-295 CNS = system: SF-295 CNS
SNB-75 CNS = system: SNB-75 CNS
NCI-H460 lung = system: NCI-H460 lung
OVCAR-5 ovarian = system: OVCAR-5 ovarian
OVCAR-8 ovarian = system: OVCAR-8 ovarian
HCT-116 colon = system: HCT-116 colon
MALME-3M melanoma = system: MALME-3M melanoma
RPMI-8226 leukemia = system: RPMI-8226 leukemia
RXF 393 renal = system: RXF 393 renal
UACC-257 melanoma = system: UACC-257 melanoma
EKVX NSCLC = system: EKVX NSCLC
NCI-H226 lung = system: NCI-H226 lung
KM20L2 colon = system: KM20L2 colon
SNB-78 CNS = system: SNB-78 CNS

SMILES: COc1cc2c(cc1OC)[C@H]1C(COC(=O)Nc3ccccc3)CN1CC2 (some centres undefined)
- TGI (HL-60(TB) leukemia): > 100 µM
- TGI (UACC-62 melanoma): > 100 µM
- TGI (OVCAR-3 ovarian): > 100 µM
- TGI (DMS 273 small cell lung): > 100 µM
- TGI (SK-OV-3 ovarian): > 100 µM
- TGI (SF-268 CNS): > 100 µM
- TGI (NCI-H522 lung): > 100 µM
- TGI (SK-MEL-2 melanoma): > 100 µM
- TGI (SK-MEL-28 melanoma): > 100 µM
- TGI (HOP-62 NSCLC): > 100 µM
- TGI (HT29 colon): > 100 µM
- TGI (A498 renal): > 100 µM
- TGI (LXFL 529 NSCLC): > 100 µM
- TGI (M14 melanoma): > 100 µM
- TGI (NCI-H23 lung): > 100 µM
- TGI (UO-31 renal): > 100 µM
- TGI (IGROV1 ovarian): > 100 µM
- TGI (LOX IMVI melanoma): > 100 µM
- TGI (DLD-1 colon): > 100 µM
- TGI (786-0 renal): > 100 µM
- TGI (OVCAR-4 ovarian): > 100 µM
- TGI (SW-620 colon): > 100 µM
- TGI (SF-539 CNS): > 100 µM
- TGI (M19-MEL melanoma): > 100 µM
- TGI (CAKI-1 renal): > 100 µM
- TGI (SN12C renal): > 100 µM
- TGI (U251 CNS): > 100 µM
- TGI (HOP-18 NSCLC): > 100 µM
- TGI (HCC-2998 colon): > 100 µM
- TGI (ACHN renal): > 100 µM
- TGI (HCT-15 colon): > 100 µM
- TGI (SK-MEL-5 melanoma): > 100 µM
- TGI (MOLT-4 leukemia): > 100 µM
- TGI (HOP-92 NSCLC): > 100 µM
- TGI (SR leukemia): > 100 µM
- TGI (COLO 205 colon): > 100 µM
- TGI (SNB-19 CNS): > 100 µM
- TGI (CCRF-CEM leukemia): > 100 µM
- TGI (TK-10 renal): > 100 µM
- TGI (KM12 colon): > 100 µM
- TGI (A549 NSCLC): > 100 µM
- TGI (K-562 leukemia): > 100 µM
- TGI (SF-295 CNS): > 100 µM
- TGI (SNB-75 CNS): 79.3 µM
- TGI (NCI-H460 lung): > 100 µM
- TGI (OVCAR-5 ovarian): > 100 µM
- TGI (OVCAR-8 ovarian): > 100 µM
- TGI (HCT-116 colon): > 100 µM
- TGI (MALME-3M melanoma): > 100 µM
- TGI (RPMI-8226 leukemia): > 100 µM
- TGI (RXF 393 renal): > 100 µM

SMILES: O=C(O)CCSC(=O)Nc1ccccc1
- TGI (HL-60(TB) leukemia): > 100 µM
- TGI (UACC-62 melanoma): > 100 µM
- TGI (OVCAR-3 ovarian): > 100 µM
- TGI (DMS 273 small cell lung): > 100 µM
- TGI (SF-268 CNS): > 100 µM
- TGI (UACC-257 melanoma): > 100 µM
- TGI (SK-MEL-2 melanoma): > 100 µM
- TGI (SK-MEL-28 melanoma): > 100 µM
- TGI (HOP-62 NSCLC): > 100 µM
- TGI (HT29 colon): > 100 µM
- TGI (A498 renal): > 100 µM
- TGI (LXFL 529 NSCLC): > 100 µM
- TGI (M14 melanoma): > 100 µM
- TGI (NCI-H23 lung): > 100 µM
- TGI (UO-31 renal): > 100 µM
- TGI (IGROV1 ovarian): > 100 µM
- TGI (LOX IMVI melanoma): > 100 µM
- TGI (DLD-1 colon): > 100 µM
- TGI (786-0 renal): > 100 µM
- TGI (OVCAR-4 ovarian): > 100 µM
- TGI (SW-620 colon): > 100 µM
- TGI (SF-539 CNS): > 100 µM
- TGI (CAKI-1 renal): > 100 µM
- TGI (SN12C renal): > 100 µM
- TGI (U251 CNS): > 100 µM
- TGI (HCC-2998 colon): > 100 µM
- TGI (ACHN renal): > 100 µM
- TGI (HCT-15 colon): > 100 µM
- TGI (MOLT-4 leukemia): > 100 µM
- TGI (SR leukemia): > 100 µM
- TGI (EKVX NSCLC): > 100 µM
- TGI (COLO 205 colon): > 100 µM
- TGI (NCI-H226 lung): > 100 µM
- TGI (SNB-19 CNS): > 100 µM
- TGI (CCRF-CEM leukemia): > 100 µM
- TGI (TK-10 renal): > 100 µM
- TGI (KM12 colon): > 100 µM
- TGI (A549 NSCLC): > 100 µM
- TGI (KM20L2 colon): > 100 µM
- TGI (K-562 leukemia): > 100 µM
- TGI (SF-295 CNS): > 100 µM
- TGI (NCI-H460 lung): > 100 µM
- TGI (OVCAR-5 ovarian): > 100 µM
- TGI (OVCAR-8 ovarian): > 100 µM
- TGI (HCT-116 colon): > 100 µM
- TGI (RPMI-8226 leukemia): > 100 µM
- TGI (RXF 393 renal): > 100 µM
- TGI (SNB-78 CNS): > 100 µM
